Converted amounts (≈) assume the structure as drawn.
Tests used:
Assay type in all cases: functional
Staphylococcus aureus [1] = assay: In vitro antibacterial activity of A5177 strain of Gram positive bacteria Staphylococcus aureus
Streptococcus pyogenes [2] = assay: In vitro antibacterial activity of PIU2584 strain of Gram positive bacteria Streptococcus pyogenes
Streptococcus pyogenes [3] = assay: In vitro antibacterial activity of 930 strain of Gram positive bacteria Streptococcus pyogenes
Streptococcus pneumoniae [4] = assay: In vitro antibacterial activity of 5649 strain of Gram positive bacteria Streptococcus pneumoniae
Staphylococcus aureus [5] = assay: In vitro antibacterial activity of 6538P strain of Gram positive bacteria Staphylococcus aureus
Streptococcus pneumoniae [6] = assay: In vitro antibacterial activity of ATCC 6303 strain of Gram positive bacteria Streptococcus pneumoniae
Staphylococcus aureus [7] = assay: In vitro antibacterial activity of A-5278 strain of Gram positive bacteria Staphylococcus aureus
Haemophilus influenzae = assay: In vitro antibacterial activity of DILL strain of Gram negative bacteria Haemophilus influenzae
Streptococcus pyogenes [8] = assay: In vitro antibacterial activity of EES61 strain of Gram positive bacteria Streptococcus pyogenes
Streptococcus pneumoniae [9] = assay: In vitro antibacterial activity of 5979 strain of Gram positive bacteria Streptococcus pneumoniae

MIC (Staphylococcus aureus [1]) [µg/mL] | MIC (Streptococcus pyogenes [2]) [µg/mL] | MIC (Streptococcus pyogenes [3]) [µg/mL] | MIC (Streptococcus pneumoniae [4]) [µg/mL] | MIC (Staphylococcus aureus [5]) [µg/mL] | MIC (Streptococcus pneumoniae [6]) [µg/mL] | MIC (Staphylococcus aureus [7]) [µg/mL] | MIC (Haemophilus influenzae) [µg/mL] | MIC (Streptococcus pyogenes [8]) [µg/mL] | MIC (Streptococcus pneumoniae [9]) [µg/mL] | SMILES
0.2 (≈ 0.258 µM) | 0.25 (≈ 0.323 µM) | 64 (≈ 82.6 µM) | 0.25 (≈ 0.323 µM) | 0.2 (≈ 0.258 µM) | 0.004 (≈ 0.00516 µM) | > 100 | 8 (≈ 10.3 µM) | 0.004 (≈ 0.00516 µM) | 128 (≈ 165 µM) | CC[C@H]1OC(=O)/C(C)=C/[C@H](C)[C@@H](O[C@@H]2O[C@H](C)C[C@H](N(C)C)[C@H]2O)[C@@](C)(OC)C[C@@H](C)C(=O)[C@H](C)[C@H]2N(NCCCc3cccc([N+](=O)[O-])c3)C(=O)O[C@]12C
0.05 (≈ 0.0654 µM) | 1 (≈ 1.31 µM) | 16 (≈ 20.9 µM) | 1 (≈ 1.31 µM) | 0.1 (≈ 0.131 µM) | 0.03 (≈ 0.0392 µM) | 25 (≈ 32.7 µM) | 16 (≈ 20.9 µM) | 0.125 (≈ 0.164 µM) | 16 (≈ 20.9 µM) | CC[C@H]1OC(=O)/C(C)=C/[C@H](C)[C@@H](O[C@@H]2O[C@H](C)C[C@H](N(C)C)[C@H]2O)[C@@](C)(OC)C[C@@H](C)C(=O)[C@H](C)[C@H]2N(NCCCc3ccc(Cl)cc3)C(=O)O[C@]12C
0.39 (≈ 0.488 µM) | 1 (≈ 1.25 µM) | 8 (≈ 10 µM) | 2 (≈ 2.5 µM) | 0.39 (≈ 0.488 µM) | 0.125 (≈ 0.156 µM) | 25 (≈ 31.3 µM) | 16 (≈ 20 µM) | 0.06 (≈ 0.0751 µM) | 8 (≈ 10 µM) | CC[C@H]1OC(=O)/C(C)=C/[C@H](C)[C@@H](O[C@@H]2O[C@H](C)C[C@H](N(C)C)[C@H]2O)[C@@](C)(OC)C[C@@H](C)C(=O)[C@H](C)[C@H]2N(NCCCc3ccc(Cl)cc3Cl)C(=O)O[C@]12C

The remaining lines, values behind:

SMILES | MIC (Staphylococcus aureus [1]) [µg/mL] | MIC (Streptococcus pyogenes [2]) [µg/mL] | MIC (Streptococcus pyogenes [3]) [µg/mL] | MIC (Streptococcus pneumoniae [4]) [µg/mL] | MIC (Staphylococcus aureus [5]) [µg/mL] | MIC (Streptococcus pneumoniae [6]) [µg/mL] | MIC (Staphylococcus aureus [7]) [µg/mL] | MIC (Haemophilus influenzae) [µg/mL] | MIC (Streptococcus pyogenes [8]) [µg/mL] | MIC (Streptococcus pneumoniae [9]) [µg/mL]
CC[C@H]1OC(=O)C(C)C(=O)[C@H](C)[C@@H](O[C@@H]2O[C@H](C)C[C@H](N(C)C)[C@H]2O)[C@@](C)(OC)C[C@@H](C)C(=O)[C@H](C)[C@H]2N(NCCCc3ccnc4ccccc34)C(=O)O[C@]12C (stereo not given in full) | 0.05 (≈ 0.0627 µM) | 0.25 (≈ 0.314 µM) | 2 (≈ 2.51 µM) | 0.5 (≈ 0.627 µM) | 0.1 (≈ 0.125 µM) | 0.004 (≈ 0.00502 µM) | > 100 | 1 (≈ 1.25 µM) | 0.008 (≈ 0.01 µM) | 8 (≈ 10 µM)
CC[C@H]1OC(=O)/C(C)=C/[C@H](C)[C@@H](O[C@@H]2O[C@H](C)C[C@H](N(C)C)[C@H]2O)[C@@](C)(OC)C[C@@H](C)[C@H]2[C@H](C)[C@H]3N(C(=O)O[C@]13C)N2CCCc1ccccc1 | 50 (≈ 70 µM) | 64 (≈ 89.6 µM) | 64 (≈ 89.6 µM) | 64 (≈ 89.6 µM) | 100 (≈ 140 µM) | 16 (≈ 22.4 µM) | 100 (≈ 140 µM) | > 64 | 16 (≈ 22.4 µM) | 64 (≈ 89.6 µM)
CC[C@H]1OC(=O)/C(C)=C/[C@H](C)[C@@H](O[C@@H]2O[C@H](C)C[C@H](N(C)C)[C@H]2O)[C@@](C)(OC)C[C@@H](C)C(=O)[C@H](C)[C@H]2N(NCc3ccc(OC)cc3)C(=O)O[C@]12C | 0.2 (≈ 0.273 µM) | 1 (≈ 1.37 µM) | > 64 | 2 (≈ 2.73 µM) | 0.2 (≈ 0.273 µM) | 0.125 (≈ 0.171 µM) | > 100 | 8 (≈ 10.9 µM) | 0.03 (≈ 0.041 µM) | > 64
CC[C@H]1OC(=O)/C(C)=C/[C@H](C)[C@@H](O[C@@H]2O[C@H](C)C[C@H](N(C)C)[C@H]2O)[C@@](C)(OC)C[C@@H](C)C(=O)[C@H](C)[C@H]2N(NC/C=C/c3ccc(NC(C)=O)cc3)C(=O)O[C@]12C | 0.2 (≈ 0.255 µM) | 1 (≈ 1.27 µM) | > 64 | 1 (≈ 1.27 µM) | 0.2 (≈ 0.255 µM) | 0.03 (≈ 0.0382 µM) | > 100 | 4 (≈ 5.1 µM) | 0.06 (≈ 0.0764 µM) | > 64
CC[C@H]1OC(=O)/C(C)=C/[C@H](C)[C@@H](O[C@@H]2O[C@H](C)C[C@H](N(C)C)[C@H]2O)[C@@](C)(OC)C[C@@H](C)[C@@H]2NN3C(=O)O[C@@]1(C)[C@H]3[C@H]2C | > 100 | > 128 | > 128 | > 128 | > 100 | > 128 | > 100 | > 128 | > 128 | > 128
CC[C@H]1OC(=O)/C(C)=C/[C@H](C)[C@@H](O[C@@H]2O[C@H](C)C[C@H](N(C)C)[C@H]2O)[C@@](C)(OC)C[C@@H](C)C(=O)[C@H](C)[C@H]2N(NCc3ccccc3O)C(=O)O[C@]12C | 0.2 (≈ 0.279 µM) | 0.5 (≈ 0.696 µM) | > 64 | 2 (≈ 2.79 µM) | 0.2 (≈ 0.279 µM) | 0.06 (≈ 0.0836 µM) | > 100 | 2 (≈ 2.79 µM) | 0.03 (≈ 0.0418 µM) | > 64
CC[C@H]1OC(=O)/C(C)=C/[C@H](C)[C@@H](O[C@@H]2O[C@H](C)C[C@H](N(C)C)[C@H]2O)[C@@](C)(OC)C[C@@H](C)C(=O)[C@H](C)[C@H]2N(NCc3ccc(Cl)cc3)C(=O)O[C@]12C | 0.2 (≈ 0.272 µM) | 1 (≈ 1.36 µM) | 32 (≈ 43.5 µM) | 1 (≈ 1.36 µM) | 0.2 (≈ 0.272 µM) | 0.06 (≈ 0.0815 µM) | 100 (≈ 136 µM) | 16 (≈ 21.7 µM) | 0.03 (≈ 0.0407 µM) | 32 (≈ 43.5 µM)

From ChEMBL document CHEMBL1131216, “Anhydrolide macrolides. 2. Synthesis and antibacterial activity of 2,3-anhydro-6-O-methyl 11,12-carbazate erythromycin A analogues” (1998)
